Experimental data taken from US20090005424A9, “Composition and Method for Treating Fibrotic Diseases” (priority 2005, published 2009).
Like-named read-outs stand apart in the source and are kept apart here.

Assays:
[1] = test system: SD rat, Unilateral Ureteral Obstruction (UUO) model; assay: Rat UUO model of renal interstitial fibrosis, histological score (Example 8); format: in vivo; conditions: UUO rats; AKF-PD 500 mg/kg/d, Enalapril 10 mg/kg/d by gavage; 14 days post surgery; Radford's method
Experimental: Anti-fibrotic effect of AKF-PD was tested on a SD rat model for renal interstitial fibrosis induced by surgical ligation of single side ureter (Unilateral Ureteral Obstruction, UUO, model). Eight weeks old male SD rats (180 g˜220 g) were randomly divided into sham surgical group, disease model group, Enalapril (10 mg/kg/d) group and AKF-PD (500 mg/kg/d) group. […] The animals of the sham surgical group experienced the same surgical procedure except the ligation step. The respective drugs were administrated by gavage to rats in the groups of Enalapril and AKF-PD from one day prior to the procedure to 14 days post surgical procedure. Normal saline was administrated in a similar fashion to the rats in the groups of disease model and sham surgical. The animals were sacrificed 14 days after surgical procedure and their left kidney were removed for pathological (HE staining) examination. Histological scoring for interstitial compartment was done according to Radford's method (Radford et al., Predicting renal outcome in IgA nephropathy. J. Am. Soc. Nephrol. 8: 199-207(1997)).

Kun Ming (KM) mice [2] = assay: Acute oral toxicity in Kun Ming mice, LD50 by Bliss method; conditions: mouse, in vivo
Experimental: Male and female Kun Ming (KM) mice weighing between 18 g-22 g were acquired from the animal facility of Hsiang-Ya Medical College, the Central South University. Fifty Kun Ming mice were randomly assigned into 5 groups with 5 male and 5 female mice for each group. The animals went through fasting with a normal water supply before starting drug treatment (either AKF-PD or PIRFENIDONE). The drug was administrated orally by gavage. The volume of liquid drug was 20 ml/kg body weight. The range of dosage for AKF-PD administrated was from 1071 mg/kg to 6000 mg/kg. The dosage difference between two adjacent doses was 1:0.65 (a dose vs the next lower dose). All animals were maintained under a regular condition. Acute toxic reaction and death within 14 days of post drug treatment were recorded. Autopsy was performed on all dead animals and visual examination was performed on all organs.
LD50 was calculated according to Bliss method. […] The results of Table 15 are very close to those reported in the literature: 997.7 mg/kg (U.S. Pat. No. 5,310,562) and 1112 mg/kg(Pharmaceutical Care and Research 5:4823(2005)).

[3] = test system: Kun Ming (KM) mice infected with Schistosoma miracidium; assay: Schistosomial liver fibrosis in Kun Ming mice, egg granuloma area and immunohistology; format: in vivo; conditions: for Schistosomo Egg Granuloma Area, Mean: all after Pyquiton 650 mg/kg 4 days, AKF-PD 500 mg/kg daily gavage, γ-interferon 50,000 unit daily i.m., 8 weeks
Source text: Kun Ming (KM) mice were infected with Schistosoma miracidium to induce schistosomial liver fibrosis. […] Ten Schistosoma miracidium were placed on shaved abdominal skin of each mouse for infection. […] Five hundred mg/kg AKF-PD were given daily by gavage to the disinfected mice of infected/AKF-PD group. The disinfected mice were given (i.m.) 50,000 unit γ-interferon daily. […] Drug or normal saline treatment was continued for 8 weeks. All mice were sacrificed one week after discontinue of drug treatment, and the left lobe of liver from each mouse was taken for pathological examination. Examination of HE-stained slices of liver tissue were carried out as follows. In general, after 16 weeks of Schistosoma miracidia infection, the area of schistosomo egg granuloma would directly correlate to the severity of liver fibrosis. Therefore, the area of schistosomo egg granuloma was measured using a high-resolution, color pathology graphic analyzer (HPIAS-1000). The sum of area of 5 granuloma with abundant eggs and the sum of area of 5 granuloma with few eggs were measured for each slice.

[4] = test system: Sprague-Dawley rats, Bleomycin-induced pulmonary fibrosis; assay: Bleomycin-induced rat pulmonary fibrosis, severity of fibrotic lesions; format: in vivo; conditions: AKF-PD 500 mg/kg daily by gavage; 27 days post surgery; total of 8 rats
Experimental: Bleomycin-induced rat pulmonary fibrosis is selected for testing 5-methyl-1-(3′-fluorophenyl)-2(1H)-pyridone (AKF-PD). Male Sprague-Dawley rats (6-8 weeks old, 180 g˜220 g) were cared under regular condition. The animals were randomly divided into 3 groups: sham surgical group, model disease group, and disease/AKF-PD group. Six mg/kg/4 ml of Bleomycin was slowly infused into the trachea of rats in the model disease and disease/AKF-PD groups. Same amount of normal saline was infused into the trachea of rats in the sham surgical group.
Five hundred mg/kg AKF-PD was directly administrated by gavage to rats in the disease/AKF-PD group daily from 2 days prior to operation through 27 days after operation. Normal saline was used for all animals in both disease and sham surgical groups. The animals were sacrificed at 27 days post surgery and the lung tissues were removed for pathological sample preparation. The HE-stained lung tissues from each rat were examined under microscope to determine the frequency and severity of fibrotic lesion. Evaluation of lung tissue fibrosis was carried out according to the method of Szapiel et al., Bleomycin-induced interstitial pulmonary disease in the nude, athymic mouse. Am. Rev. Respir. Dis. 120:893-9(1979).

Kun Ming (KM) mice [5] = conditions: cited from earlier work
[6] = compared with pyquiton and Interferon-γ treated

Row | SMILES | Histological Score for Interstitial Compartment [1] | LD50 as percent of that of PIRFENIDONE (Kun Ming (KM) mice [2]; both, Kun Ming (KM), 14 days) | LD50 95% confidence limit (Kun Ming (KM) mice [2]; both, Kun Ming (KM), po, 14 days) | toxicity relative to that of PIRFENIDONE (Kun Ming (KM) mice [2]) | fibrotic nodule (immunohistological staining, FIG. 3) [3, 6] | type I collagen accumulation (immunohistological staining, FIG. 4) [3, 6] | Schistosomo Egg Granuloma Area, Mean ([3]; granuloma with abundant eggs) | Schistosomo Egg Granuloma Area, Mean ([3]; granuloma with few eggs) | Number of rats with Severity of Fibrosis: Milder [4] | Number of rats with Severity of Fibrosis: Moderate [4] | Number of rats with Severity of Fibrosis: None [4] | Number of rats with Severity of Fibrosis: Sever [4] | LD50 reported in the literature (Kun Ming (KM) mice [5]; Pharmaceutical Care and Research 5:4823(2005)) | LD50 reported in the literature (Kun Ming (KM) mice [5]; U.S. Pat. No. 5,310,562)
1 | Cc1ccc(=O)n(-c2cccc(F)c2)c1 [AKF-PD, 1-(3′-fluorophenyl)-5-methyl-2(1H)-pyridone] | 6.43 ± 1.28 | 30% | (2402.70 − 3695.73) mg/kg | one third | much reduced fibrotic nodule | much less type I collagen accumulation | 80155.11 μm^2 | 30266.68 μm^2 | 6 | 1 | 0 | 1 |  | 
2 | Cc1ccc(=O)n(-c2ccccc2)c1 [PFD, 5-methyl-1-phenyl-2(1H)-pyridone, reference compound] |  |  |  |  |  |  |  |  |  |  |  |  | 1112 mg/kg | 997.7 mg/kg
